Test results taken from patent US20250140486A1, “FUSED AROMATIC MOLECULES AS ELECTRODE MATERIALS” (Massachusetts Institute of Technology, priority 2021, published 2025).

Assay: Solubility of the solids in organic and aqueous media / common solvents
Format: physicochemical

solubility (form insoluble solids) (in both organic and aqueous media): insoluble | solubility (in common NMR solvents): insoluble | solubility (in common organic solvents): highly insoluble
SMILES: Nc1c(N)c(=O)c2[nH]c3c(=O)c(N)c(N)c(=O)c3[nH]c2c1=O [BTABQ, tetraamino-dihydrophenazine-1,4,6,9-tetrone]
